The record followed here is article PMC12631003 (2025).

Experiment [1] has as its system miRNA21 (RNA, miRNA) GUUGACUGUUGAAUCUCAUGGCAAC
Briefly: microscale thermophoresis. The settings on record: Na+ (185 mM NaCl, 8 mM Na2HPO4), no Mg2+; 1 mM EDTA, 0.05% Tween-20; 5 nM RNA; compounds up to 100-300 µM. For orientation: MST reads how a fluorescent partner responds to local heating, with and without ligand.

The test system of experiment [2] is pre-let-7a-1 (RNA, miRNA) UUAGGGUCACACCCACCACUGGGAGAUAA
Briefly: microscale thermophoresis. To be noted: Na+ (185 mM NaCl, 8 mM Na2HPO4), no Mg2+; 1 mM EDTA, 0.05% Tween-20; 5 nM RNA.

SMILES strings stand for the structures.

As for `CCc1nc(C(N)=O)c(Nc2ccc(N3CCC(N4CCN(C)CC4)CC3)c(OC)c2)nc1NC1CCOCC1`, the binding result in experiment [1] was “no”. This compound had a K d in experiment [2] of 29.4 µM.

Regarding `CN1CCN(c2ccc(C(=O)Nc3n[nH]c4ccc(Cc5cc(F)cc(F)c5)cc34)c(NC3CCOCC3)c2)CC1`, in experiment [1], the binding result was “no”. Besides, the K d in experiment [2] turned out to be 5.0 µM.

`Cn1cnc2c(F)c(Nc3ccc(Br)cc3Cl)c(C(=O)NOCCO)cc21` came in with a K d in experiment [2] of 217 µM.

In experiment [2], `N#CC[C@H](C1CCCC1)n1cc(-c2ncnc3[nH]ccc23)cn1` registered a K d of 82.4 µM.
